# Patent US20220041559A1, “BENZO-AND PYRIDO-PYRAZOLES AS PROTEIN KINASE INHIBITORS” (ROTTAPHARM BIOTECH S.R.L., priority 2019, published 2022)
# Key:
# FYN = biological target: T1, FYN (Homo sapiens, UniProt P06241); assay: Z'-LYTE in vitro kinase assay, FYN kinase inhibition; format: biochemical; conditions: for IC50: near-Km ATP, 60 minutes at 25° C.
# T1 construct: purchased CarnaBioscience
# Description: Assays to determine the kinase inhibitory activity of compounds were performed using an automatic liquid handling device (Microlab STAR Hamilton) and Z′-LYTE™ Kinase Assay Platform (Invitrogen), a Fluorescence Resonance Energy Transfer (FRET)-based assay platform compatible with high-throughput screening (HTS) applications. The assay employs a fluorescence-based, coupled-enzyme format and utilizes the differential sensitivity of phosphorylated and non-phosphorylated peptides to proteolytic cleavage.
# Test compounds were evaluated towards active FYN (CarnaBioscience). The enzyme was incubated in a 384 low-volume microplate with a synthetic peptide-substrate, ATP and different inhibitor concentrations, ranging from 10^−10 M up to 10^−5 M final concentration. Samples representing the 0% inhibition (or total enzymatic activity) were in the presence of compound diluent (1% DMSO final) in Reaction Buffer (50 mM Hepes, 10 mM MgCl2, 1 mM EGTA, 0.01% Brij-35, pH 7.5).
# A near-Km ATP concentrations for the kinase and an optimal enzyme concentration that phosphorylates 20-40% of the Z′-LYTE™ Tyr 2 Peptide in a one-hour incubation, were selected. All reagents were diluted in reaction buffer and the kinase reaction was carried out in a total volume of 10 μl, for 60 minutes at 25° C. The 0% Phosphorylation (i.e. no ATP) and 100% Phosphorylation (i.e. synthetically phosphorylated peptide supplied) Assay Controls, included in each plate, allowed to calculate the percent phosphorylation achieved in the specific reaction well. The 0% Inhibition and 0% Phosphorylation (i.e. 100% Inhibition) Controls define the dynamic range in the screen. At the end of incubation, a secondary reaction (the Development Reaction) started by adding 5 μl of Development Reagent, containing a site-specific protease that recognizes and cleaves non-phosphorylated peptides, and was interrupted after 60 minutes with 5 μl/sample of Stop Reagent. Measurement of the Coumarin (Ex. 400 nm, Em. 460 nm) and Fluorescein (Ex. 400 nm, Em. 535 nm) emission signals were performed by a fluorescence plate reader (Envision, PerkinElmer).
# Results are expressed as percentage of inhibition and the IC50 values were calculated by non-linear curve fitting using GraphPad™ Prism software.
# VEGFR2 (KDR) kinase = biological target: T2, VEGFR2 (KDR) kinase (Homo sapiens, UniProt P35968); assay: ADP-Glo in vitro kinase assay, VEGFR2 kinase inhibition; format: biochemical; conditions: for IC50: ATP 50 μM, 30 minutes at room temperature; for VEGFR2 kinase inhibition, result in words: Table 19
# T2 construct: purchased SignalChem
# Description: (§1) The ADP-Glo™ Kinase Assay (Promega), monitoring ADP produced in the kinase reaction, was performed in two steps. In the first one, after the kinase reaction, the ADP-Glo™ Reagent is added to terminate the kinase reaction and deplete the remaining ATP. In the second step, the Kinase Detection Reagent is added to simultaneously convert ADP to ATP (ATPn or newly synthesized ATP) and introduce luciferase and luciferin, allowing the ATPn to be measured (luciferase/luciferin reaction). The amount of light generated correlates with the amount of ATPn (indirectly with the ADP produced in kinase reaction).
# (§2) Kinase reaction was performed in 10 μl in a white 384-well plate, inhibitor solutions in DMSO/Kinase buffer (40 mM Tris-Cl, 20 mM MgCl2, 0.1 mg/ml BSA, 50 μM DTT, pH 7.5) and VEGFR2 (KDR) kinase in Kinase buffer (SignalChem, 0.5 ng/μl final concentration in assay) were pre-incubate 15 minutes at room temperature. At the kinase concentration selected, a signal-to negative control ratio >10 was calculated, according to supplier indication. In samples representing the Total enzymatic activity or the negative control (no enzyme), inhibitor solution was replaced by diluents (1 DMSO in kinase buffer, final concentration) or ultra-pure water, respectively.
# (§3) The range of inhibitor concentrations was from 10^−11 M up to 3×10^−6 M (final concentration in assay) and each experimental point was performed in duplicate.
# (§4) To start the reaction, a substrate/ATP mix (50 μM final concentration, near to ATP Km value) was added to each sample and after 30 minutes incubation at room temperature, ADP-Glo™ Reagent and Kinase Detection Reagent, incubated in sequence according to the respective incubation time and supplier indication, allowed to stop and develop the kinase reaction. The luminescence was measured with a plate-reading luminometer (Envision 2104 Multilabel reader, PerkinElmer). The percentage of inhibition was calculated towards the Total enzymatic activity and the corresponding curves were analyzed by non linear curve fitting (GraphPad software, version 7 for Windows), allowing to calculate the IC50 value±standard error of the value
# human FynB = human FynB (Homo sapiens, UniProt P06241); assay: Inhibition of FynB-induced Tau(Y18)-phosphorylation (cell-based assay, HEK293); conditions: for IC50: HEK293 over-expressing FynB and Tau 0N4R, incubation 6 or 24 hours, ELISA; for Inhibition of FynB-induced Tau(Y18)-phosphorylation, result in words: summary of Table 20
# Description: HEK293 cells (Human Embryonic Kidney 293) were seeded at 6×10^5 in poly-D-lysine 12 w microplates and grown adherent in medium DMEM/10% FBS at 37° C. with 5% CO2. After 24 h, cells were transfected in order to over-express either constitutively active form of human FynB and Tau protein (isoform 0N4R), through an optimized Lipofectamine® 3000 Transfection protocol (Life Technologies™). A non-transfected sample (negative control) was included in every experiment.
# Twenty-four hours from transfection, treatments of cells were performed by adding fresh medium containing diluent (DMSO 0.1% final concentration) or test compounds. The incubation was carried out for 6 or 24 hours at 37° C. with 5% CO2. All experimental conditions were performed in duplicate.
# At the end of the incubation, the medium was removed and cellular lysates were obtained by adding M-PER lysis buffer containing a 1× Protease/Phosphatase inhibitors cocktail. Then, lysates were transferred into Eppendorf tubes, sonicated and stored at −80° C.
# Protein content was measured by Bradford method. Lysates were analyzed by a customized ELISA assay for Tau phosphorylation (Tyrosine 18 residue-Fyn mediated) and Total amount determination. The net OD values were used to calculate the inhibitory effect of compounds.
# EGFR = EGFR (Homo sapiens, UniProt P00533); assay: ADP-Glo in vitro kinase assay, EGFR kinase inhibition; format: biochemical; parameters: purchased SignalChem; conditions: for IC50: ATP 10 μM, 30 minutes at room temperature; for EGFR kinase inhibition, result in words: text summary of Table 18
# Description: as §1
# as §2, with “EGFR” for “VEGFR2 (KDR)”, “2.5” for “0.5”, “selected” for “selected,”, “activity (no inhibitor)” for “activity”
# as §3
# as §4, with “mix (ATP 10” for “mix (50”, “the estimate.” for “the value”
# U87MG = assay: Cell viability, ViaCount assay, U87MG; format: cell-based, human; conditions: tested cell lines (U87MG, U373)
# Description: U87MG: a human glioblastoma astrocytoma from ATCC. Grown in DMEM medium supplemented with 10% FBS at 37° C. with CO2.
# Cell viability and total cell count was performed with ViaCount Assay on Guava® Systems, which was able to distinguish viable and non-viable cells based on differential permeabilities of two DNA-binding dyes in the Guava ViaCount® Reagent. 2×10^4 cancer cells were plated in 24 well in DMEM 10%. After 72 h cells were treated with the different compounds for 24, 72 h or 7 days, with a medium change and a second treatment with the product on day 4. At the end of the incubation period the analysis was done following the kit instructions.
# human FynB, sequence (P06241 271-524 limits assumed): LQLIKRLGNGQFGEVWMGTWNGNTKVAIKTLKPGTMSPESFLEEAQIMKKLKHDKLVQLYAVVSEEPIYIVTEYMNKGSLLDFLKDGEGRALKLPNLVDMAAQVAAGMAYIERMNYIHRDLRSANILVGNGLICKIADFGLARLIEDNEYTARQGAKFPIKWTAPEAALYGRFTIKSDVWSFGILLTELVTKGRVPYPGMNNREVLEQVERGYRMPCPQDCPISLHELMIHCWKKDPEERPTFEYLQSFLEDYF
# T1 sequence (P06241 whole entry): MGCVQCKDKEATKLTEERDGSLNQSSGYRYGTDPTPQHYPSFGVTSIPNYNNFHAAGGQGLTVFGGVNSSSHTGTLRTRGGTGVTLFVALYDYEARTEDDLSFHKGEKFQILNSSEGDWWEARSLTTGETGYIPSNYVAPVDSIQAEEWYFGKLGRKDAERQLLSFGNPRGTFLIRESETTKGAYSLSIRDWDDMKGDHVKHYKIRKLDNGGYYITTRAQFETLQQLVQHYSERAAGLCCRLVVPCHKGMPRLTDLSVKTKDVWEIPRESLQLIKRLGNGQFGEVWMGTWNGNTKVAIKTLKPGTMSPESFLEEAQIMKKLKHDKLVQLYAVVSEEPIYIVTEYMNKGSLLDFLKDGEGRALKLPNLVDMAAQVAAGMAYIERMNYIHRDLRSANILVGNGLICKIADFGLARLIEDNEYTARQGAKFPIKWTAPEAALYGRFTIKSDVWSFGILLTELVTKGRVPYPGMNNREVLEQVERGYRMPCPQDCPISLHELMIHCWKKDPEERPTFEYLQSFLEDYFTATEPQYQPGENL
# EGFR, sequence (P00533 25-1210): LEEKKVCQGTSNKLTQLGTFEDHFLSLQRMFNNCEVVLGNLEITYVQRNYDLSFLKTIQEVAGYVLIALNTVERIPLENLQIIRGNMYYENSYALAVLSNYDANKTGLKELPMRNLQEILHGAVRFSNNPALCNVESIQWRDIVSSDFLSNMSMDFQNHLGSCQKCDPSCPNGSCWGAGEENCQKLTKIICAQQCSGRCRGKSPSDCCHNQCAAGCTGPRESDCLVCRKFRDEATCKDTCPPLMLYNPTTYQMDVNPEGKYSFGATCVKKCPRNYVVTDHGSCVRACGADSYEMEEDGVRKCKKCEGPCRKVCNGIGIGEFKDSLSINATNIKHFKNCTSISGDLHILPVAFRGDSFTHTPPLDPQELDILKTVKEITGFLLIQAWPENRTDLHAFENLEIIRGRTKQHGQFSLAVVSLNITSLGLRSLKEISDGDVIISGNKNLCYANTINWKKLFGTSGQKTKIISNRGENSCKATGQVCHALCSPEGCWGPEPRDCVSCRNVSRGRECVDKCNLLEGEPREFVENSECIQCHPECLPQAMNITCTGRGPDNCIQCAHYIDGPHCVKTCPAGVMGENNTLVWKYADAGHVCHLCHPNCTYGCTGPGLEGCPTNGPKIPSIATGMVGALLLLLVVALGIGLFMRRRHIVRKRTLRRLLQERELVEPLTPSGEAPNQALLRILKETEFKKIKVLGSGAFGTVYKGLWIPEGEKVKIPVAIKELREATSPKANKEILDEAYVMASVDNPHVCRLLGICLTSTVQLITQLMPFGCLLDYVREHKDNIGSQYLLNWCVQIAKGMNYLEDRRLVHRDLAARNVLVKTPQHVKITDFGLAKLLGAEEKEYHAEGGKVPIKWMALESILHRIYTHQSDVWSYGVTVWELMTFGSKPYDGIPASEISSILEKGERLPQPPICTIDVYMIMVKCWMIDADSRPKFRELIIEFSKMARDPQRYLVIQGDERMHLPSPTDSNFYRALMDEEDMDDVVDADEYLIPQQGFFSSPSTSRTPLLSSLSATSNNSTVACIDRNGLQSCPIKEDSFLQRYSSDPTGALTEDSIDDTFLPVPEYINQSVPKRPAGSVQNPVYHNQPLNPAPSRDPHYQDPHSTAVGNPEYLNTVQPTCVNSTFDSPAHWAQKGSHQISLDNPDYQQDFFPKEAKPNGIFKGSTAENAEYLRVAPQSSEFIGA
# T2 sequence (P35968 20-1356): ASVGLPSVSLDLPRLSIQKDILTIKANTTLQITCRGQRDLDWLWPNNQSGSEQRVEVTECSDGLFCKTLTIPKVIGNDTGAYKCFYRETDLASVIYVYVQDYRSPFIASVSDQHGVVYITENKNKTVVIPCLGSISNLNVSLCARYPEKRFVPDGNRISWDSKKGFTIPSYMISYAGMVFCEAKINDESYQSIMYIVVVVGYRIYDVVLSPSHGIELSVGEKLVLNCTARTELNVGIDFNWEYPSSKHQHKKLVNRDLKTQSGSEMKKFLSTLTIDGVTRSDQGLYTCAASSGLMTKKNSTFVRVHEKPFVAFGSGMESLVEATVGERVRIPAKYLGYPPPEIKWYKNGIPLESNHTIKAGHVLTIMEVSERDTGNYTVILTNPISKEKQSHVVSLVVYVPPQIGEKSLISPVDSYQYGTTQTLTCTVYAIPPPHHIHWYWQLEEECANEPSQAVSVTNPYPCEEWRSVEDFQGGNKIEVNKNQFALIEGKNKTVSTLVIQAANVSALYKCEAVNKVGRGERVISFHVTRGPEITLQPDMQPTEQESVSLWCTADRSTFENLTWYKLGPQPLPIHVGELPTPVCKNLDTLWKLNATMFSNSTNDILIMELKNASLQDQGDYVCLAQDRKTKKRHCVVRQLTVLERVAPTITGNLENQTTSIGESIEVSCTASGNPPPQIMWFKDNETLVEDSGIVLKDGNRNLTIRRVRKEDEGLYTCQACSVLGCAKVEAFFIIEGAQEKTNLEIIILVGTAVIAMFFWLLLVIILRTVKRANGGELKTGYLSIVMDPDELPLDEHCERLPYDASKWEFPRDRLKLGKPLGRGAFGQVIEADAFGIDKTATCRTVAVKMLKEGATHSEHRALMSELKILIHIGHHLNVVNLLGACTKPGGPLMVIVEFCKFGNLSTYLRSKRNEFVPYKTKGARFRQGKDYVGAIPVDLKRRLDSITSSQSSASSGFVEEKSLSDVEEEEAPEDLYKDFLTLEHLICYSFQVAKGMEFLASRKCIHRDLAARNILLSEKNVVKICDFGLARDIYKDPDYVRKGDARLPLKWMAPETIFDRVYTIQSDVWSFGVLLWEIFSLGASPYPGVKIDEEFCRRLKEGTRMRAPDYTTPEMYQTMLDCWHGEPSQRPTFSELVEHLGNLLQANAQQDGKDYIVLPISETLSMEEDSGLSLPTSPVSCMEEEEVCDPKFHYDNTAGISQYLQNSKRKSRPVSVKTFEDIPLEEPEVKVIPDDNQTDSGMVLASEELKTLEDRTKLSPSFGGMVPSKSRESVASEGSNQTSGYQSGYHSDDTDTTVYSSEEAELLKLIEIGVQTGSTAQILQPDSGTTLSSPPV
SMILES,IC50 (FYN) [nM],IC50 (VEGFR2 (KDR) kinase) [nM],"VEGFR2 kinase inhibition, result in words (VEGFR2 (KDR) kinase)",IC50 (human FynB) [nM],IC50 (EGFR) [nM],"Inhibition of FynB-induced Tau(Y18)-phosphorylation, result in words (human FynB)","EGFR kinase inhibition, result in words (EGFR)","FYN kinase inhibition, result in words (FYN; Table 17)","reduction of cell viability, result in words (U87MG)"
"Cc1ccc(Nc2ccc3c(NC(=O)c4ccc(C5CCN(C)CC5)cc4)n[nH]c3n2)c(F)c1 [Compound 30, N-(6-((2-fluoro-4-methylphenyl)amino)-1H-pyrazolo[3,4-b]pyridin-3-yl)-4-(1-methylpiperidin-4-yl)benzamide]",115,1,more potent,669,155,–,–,–,–
"COc1ccc(Nc2ccc3c(NC(=O)c4ccc(C5CCN(C)CC5)cc4)n[nH]c3n2)cc1F [Compound 33, N-(6-((3-fluoro-4-methoxyphenyl)amino)-1H-pyrazolo[3,4-b]pyridin-3-yl)-4-(1-methylpiperidin-4-yl)benzamide]",103,–,–,1850,–,–,–,–,–
"Cc1ccc(Nc2ccc3c(NC(=O)c4ccc(C5CCN(C)CC5)cc4)n[nH]c3n2)cc1 [Compound 23, 4-(1-methylpiperidin-4-yl)-N-(6-(p-tolyamino)-1H-pyrazolo[3,4-b]pyridin-3-yl)benzamide]",111,2.6,–,230,≥ 1000,–,–,–,–
"CN1CCC(c2ccc(C(=O)Nc3n[nH]c4nc(Nc5cccc(F)c5F)ccc34)cc2)CC1 [Compound 20, N-(6-((2,3-difluorophenyl)amino)-1H-pyrazolo[3,4-b]pyridin-3-yl)-4-(1-methylpiperidin-4-yl)benzamide]",209,105,–,234,9,best inhibitors,more active,–,–
"COCCN1CCC(c2ccc(C(=O)Nc3n[nH]c4nc(Nc5ccccc5F)ccc34)cc2)CC1 [Compound 25, N-(6-((2-fluorophenyl)amino)-1H-pyrazolo[3,4-b]pyridin-3-yl)-4-(1-(2-methoxyethyl)piperidin-4-yl)benzamide]",238,–,–,1770,–,–,–,–,–
"CN1CCC(c2ccc(C(=O)Nc3n[nH]c4nc(Nc5ccc6c(c5)OCO6)ccc34)cc2)CC1 [Compound 28, N-(6-(benzo[d][1,3]dioxol-5-ylamino)-1H-pyrazolo[3,4-b]pyridin-3-yl)-4-(1-methylpiperidin-4-yl)benzamide]",72,1,more potent,100,≥ 1000,best inhibitors,–,more active,active in reducing cell viability
"CC(=O)N1CCN(c2ccc(C(=O)Nc3n[nH]c4nc(Nc5ccccc5F)ccc34)cc2)CC1 [Compound 52, 4-(4-acetylpiperazin-1-yl)-N-(6((2-fluorophenyl)amino)-1H-pyrazolo[3,4-b]pyridin-3-yl)benzamide]",168,–,–,646,–,–,–,–,–
"CN1CCN(c2ccc(C(=O)Nc3n[nH]c4nc(Nc5ccccc5F)ccc34)cc2)CC1 [Compound 48, N-(6-((2-fluorophenyl)amino)-1H-pyrazolo[3,4-b]pyridin-3-yl)-4-(4-methylpiperazin-1-yl)benzamide]",212,1,more potent,259,15,best inhibitors,more active,–,–
